# Source: patent US20030049709A1, “Programmed cell death and Ich-3” (priority 1996, published 2003)
# B1: Gra3: Granzyme 3 (protein, UniProt P49863 27-264, looked up)
# Granzyme K: IIGGKEVSPHSRPFMASIQYGGHHVCGGVLIDPQWVLTAAHCQYRFTKGQSPTVVLGAHSLSKNEASKQTLEIKKFIPFSRVTSDPQSNDIMLVKLQTAAKLNKHVKMLHIRSKTSLRSGTKCKVTGWGATDPDSLRPSDTLREVTVTVLSRKLCNSQSYYNGDPFITKDMVCAGDAKGQKDSCKGDSGGPLICKGVFHAIVSGGHECGVATKPGIYTLLTKKYQTWIKSNLVPPHTN
# Assays:
# [1] = biological target: ICH-3 protein (mouse) (mouse) (UniProt P70343)
# [2] = test system: thymocytes; assay: Thymocyte apoptosis under other apoptotic stimuli; format: cell-based, mice; conditions: Ich-3 mutant thymocytes; dexamethasone 1 μM; 10 nM PMA and 500 nM Ca2+ ionophore
# Experimental: Thymocytes are sensitive to several apoptotic stimuli such as irradiation and dexamethasone (Cohen, J. J., et al., Annu. Rev. Immunol. 10:267-293 (1992)). To determine if apoptosis of thymocytes is affected by a mutation in the Ich-3 locus, Ich-3−/− thymocytes were examined for defects in apoptosis using a variety of apoptotic induction signals. Thymocytes isolated from 6-7 week old, wild-type and Ich-3 mutant mice were treated with 500 rads of y-irtadiation, or dexamethasone (1(IM, or 10 nM phorbol myristate acetate (PMA) and 500 nM Ca^2+ ionophore, and cell viability was examined 10 hr or 24 hr after treatment by using FCAS analysis after staining with propidine iodine. (Schwartz, et al., “Cell Death—Methods in Cell Biology.” vol. 46, Academic Press).
# [3] = test system: embryonic fibroblasts; assay: Granzyme/perforin induced apoptosis of embryonic fibroblasts (Hoechst dye); format: cell-based, mice; conditions: Ich-3−/− EF cells; up to 0.8 μg/ml granzyme with 50 ng/ml perforin
# Experimental: FIGS. 9A-9B. Ich-3 deficient EF cells are resistant to Granzyme B and Granzyme 3 induced apoptosis. Embryonic fibroblasts from Ich-3−/− and wild type controls were treated with varying concentrations of granzyme B (FIG. 9A) or granzyme 3 (FIG. 9B) in the presence of a constant amount of perforin (50 ng/ml) for a period of 2 and 8 hrs, respectively. The percentage of apoptosis cells was determined from cell counts after staining with Hoechst dye (Chen et al., 1995). Control wells contained cells alone incubated with or without perforin. Data points represent the percentage of apoptotic cells for a particular dilution of granzyme minus the percentage of apoptotic cells observed in medium alone.
# Granule serine protease (GraB) derived from cytotoxic T lymphocytes (CTL) can induce apoptosis in the presence of the pore forming protein perforin (Shi et al., J. Exp. Med. 176:1521-1529 (1992)). To determine the role of ICH-3 in apoptosis induced by GraB, the ability of Ich-3−/− embryonic fibroblasts (EF) to undergo apoptosis following treatment with GraB or Granzyme 3 (Gra3) and perforin was examined. Embryonic fibroblasts from Ich-3−/− mice and wild type littermate controls were treated with varying concentrations of GraB or Gra3 in the presence of a constant amount of perforin (50 ng/ml) for a period of 2 and 8 hrs, respectively.
# [4] = biological target: T1, His-tagged ICH-3 protein (Mus musculus, UniProt P70343); assay: In vitro cleavage assay of ICH-3 by GraB (Western blot); format: biochemical; conditions: 20 ng GraB, 30° C., 1 hour, 10 mM DTT
# T1 construct: An EcoRI fragment from the cDNA clone BSNO12 encoding the full length Ich-3 was subdloned into EcoRI site of pTrcHis (Invitrogen); polyhistidine (six histidines) (N); made in house; host or cells: E. coli
# T1 sequence (P70343 81-373): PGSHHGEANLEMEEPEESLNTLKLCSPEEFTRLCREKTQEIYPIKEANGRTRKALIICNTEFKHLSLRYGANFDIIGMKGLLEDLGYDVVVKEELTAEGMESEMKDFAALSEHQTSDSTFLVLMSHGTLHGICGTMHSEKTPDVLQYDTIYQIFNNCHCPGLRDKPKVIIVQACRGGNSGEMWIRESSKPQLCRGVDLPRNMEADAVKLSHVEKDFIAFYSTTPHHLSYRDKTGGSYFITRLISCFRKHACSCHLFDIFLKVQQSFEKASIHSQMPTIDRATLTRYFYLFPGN
# Experimental: FIG. 5. Cleavage of ICH-3 protein by granzyme B. 10 μg His-tagged ICH-3 protein purified from E. coli was incubated with 20 ng of GraB in the presence of 10 mM DTT at 30° C. for 1 hour. The result was detected by Western blotting with a peptide antibody against p20 portion of ICH-3.
# For in vitro cleavage of ICH-3 by GraB, […] purified His-tagged ICH-3 protein was incubated with 20 ng of GraB in the presence of 50 mM Tris-HCl, pH 7.5, 0.5 mM EDTA, 0.5 mM Sucrose and 10 mM DTT in a total volume of 10 μl. The mixture was incubated at 30° C. for 1 hour and the cleavage was detected by Western blotting with a peptide antibody against the p20 portion of ICH-3.
# To examine whether GraB can cleave ICH-3, a His-tagged ICH-3 protein was expressed in E. coli. His-tagged ICH-3 protein purified from bacteria was mixed with or without active GraB and incubated at 30° C. for 1 hour. The cleavage products were identified by Western blot with a peptide antibodies against the p20 or a monoclonal antibody against p10 portion of ICH-3. As show in FIG. 5, the fulll length ICH-3 band disappeared after incubation with GraB: a new 20 kDa band appeared which is detected by an anti-ICH-3 p20 antibody and a new 10 kDa band which is recognized by a monoclonal antibody against p10 of ICH-3. […] Fragments around 30 kDa are the predicted sizes of the cleavages at Asp 59 and Asp 80. […]
# [5] = test system: poly(ADP-ribose) polymerase (PARP) cleavage; conditions: cited from earlier work
# [6] = test system: apoptosis in an cell-free system; conditions: read-out: concentration to cause 50% inhibition of apoptosis; cited from earlier work
molecule,measurement,setting,value
granzyme B (enzyme),percentage of apoptotic embryonic fibroblasts (Hoechst dye) after GraB and perforin,[1],40%
phorbol myristate acetate [PMA and Ca^2+ ionophore],resistance of thymocytes to induced apoptosis,[2],not resistant
GraB: granule serine protease required for the cytotoxic activity of lymphocytes,apoptosis of EF cells,[3],only baseline levels of apoptosis
same,cleavage of ICH-3,[4],can cleave ICH-3 into p20 and p10
Ac-DEVD-CHO,dose inhibiting PARP cleavage,[5],1 nM
same,IC50,[6],1000 nM
B1,apoptosis of EF cells,[3],only baseline levels of apoptosis
